A value given as a limit tells only on which side of the number the result lay.

In one assay the test system is Ba/F3-T315I cells. The assay can be described thus: Ba/F3-T315I XTT Assay (cell survival). In kind it is cell-based. As to conditions: 72 hours. The method, then:
MV4-11 and THP cells were maintained in Iscove's Modified Dulbecco's Medium supplemented with 10% fetal bovine serum (FBS) and penicillin/streptomycin, Ba/F3 cells were maintained in RPMI 1640 supplemented with 10% FBS, penicillin/streptomycin and 5 ng/ml recombinant mouse IL-3.
Compounds were tested in the following assays in duplicate.
96-well XTT assay: Cells (e.g. BaF3 315I, M351I, or E255K cells) were grown in growth media containing various concentrations of compounds (duplicates) on a 96-well plate for 72 hours at 37° C. The starting cell number was 5000-8000 cells per well and volume was 120 μl. At the end of the 72-hour incubation, 40 μl of XTT labeling mixture (50:1 solution of sodium 3′-[1-(phenylamino-carbonyl)-3,4-tetrazolium]-bis(4-methoxy-6-nitro) benzene sulfonic acid hydrate and Electron-coupling reagent: PMS (N-methyl dibenzopyrazine methyl sulfate) were added to each well of the plate. After an additional 2-6 hours of incubation at 37° C., the absorbance reading at 405 nm with background correction at 650 nm was measured with a spectrophotometer.
For orientation: Tetrazolium assays rely on reduction of a dye to a coloured formazan, in cell work by metabolically active cells.
As usually defined, the IC50 is the concentration that gives 50% inhibition. The compound `COc1ccccc1-c1c[nH]c2ncc(-c3ccc4[nH]cc(CC(=O)O)c4c3)cc12` [AE10] yielded an IC50 of less than 100 nM.

Another assay has as its target T1, Autophosphorylated AurA kinase (Homo sapiens, UniProt O14965).
T1 construct: made in house; host or cells: Sf9 insect cells
T1 sequence (O14965 1-403): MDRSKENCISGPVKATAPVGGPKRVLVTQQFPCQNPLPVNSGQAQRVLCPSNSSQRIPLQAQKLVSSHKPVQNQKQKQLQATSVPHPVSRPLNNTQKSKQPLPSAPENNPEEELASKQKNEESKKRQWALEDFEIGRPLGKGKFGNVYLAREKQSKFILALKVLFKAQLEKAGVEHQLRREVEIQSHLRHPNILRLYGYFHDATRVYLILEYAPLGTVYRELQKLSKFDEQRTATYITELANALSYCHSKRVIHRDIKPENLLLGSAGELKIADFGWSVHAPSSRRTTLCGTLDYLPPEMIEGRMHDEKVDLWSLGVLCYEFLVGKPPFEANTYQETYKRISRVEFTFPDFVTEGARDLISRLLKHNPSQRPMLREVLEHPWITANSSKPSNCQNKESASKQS
The assay can be described thus: AurA Bioassay (luminescence-based enzyme assay, Kinase-Glo). In kind it is biochemical. As to conditions: 10 μM ATP. The text has this:
In addition to the c-Abl PK/LDH coupled assay (above), homogeneous luminescence-based inhibitor screening assays were developed for c-Abl, MET, AurA, and PDK1 kinases (among others). Each of these assays made use of an ATP depletion assay (Kinase-Glo™, Promega Corporation, Madison, Wis.) to quantitate kinase activity. The Kinase-Glo™ format uses a thermostable luciferase to generate luminescent signal from ATP remaining in solution following the kinase reaction. The luminescent signal is inversely correlated with the amount of kinase activity.
Materials: Kemptide peptide substrate=LRRASLG (SEQ ID NO:2) (Biopeptide, San Diego, Calif.), ATP (Sigma Cat#A-3377, FW=551), HEPES buffer, pH 7.5, 10% Brij 35 (Calbiochem Cat#203728), MgCl2, Staurosporine (Streptomyces sp. Sigma Cat#85660-1MG), white Costar 384-well flat bottom plate (VWR Cat#29444-088), Autophosphorylated AurA kinase (see below), Kinase-Glo™ (Promega Cat#V6712).
Stock Solutions: 10 mM Kemptide peptide (7.72 mg/ml in water), stored at −20° C.; 100 mM HEPES buffer+0.015% Brij 35, pH 7.5 (5 ml 1M HEPES stock+75 μL 10% Brij 35+45 ml miliQH2O); 10 mM ATP (5.51 mg/ml in dH2O) stored at −20° C. (diluted 50 μl into total of 10 ml miliQH2O daily=50 μM ATP working stock); 100 mM MgCl2; […] Staurosporine, 2× Kinase-Glo™ reagent (made fresh or stored at −20° C.).
AurA Autophosphorylation Reaction: ATP and MgCl2 were added to 1-5 mg/ml AurA at final concentrations of 10 mM and 100 mM, respectively. The autophosphorylation reaction was incubated at 21° C. for 2-3 h. The reaction was stopped by the addition of EDTA to a final concentration of 50 mM, and samples were flash frozen with liquid N2 and stored at −80° C.
Standard Assay Setup for 384-well format (20 μl kinase reaction, 40 μl detection reaction): 10 mM MgCl2; 0.2 mM Kemptide peptide; […] test compound (in DMSO); 0.3 μg/ml Autophosphorylated AurA kinase; 10 μM ATP; 100 mM HEPES+0.015% Brij buffer. Positive controls contained DMSO with no test compound. Negative controls contained 5 μM staurosporine. The kinase reactions were initiated at time t=0 by the addition of ATP. Kinase reactions were incubated at 21° C. for 45 min, then 20 μl of Kinase-Glo™ reagent were added to each well to quench the kinase reaction and initiate the luminescence reaction. After a 20 min incubation at 21° C., the luminescence was detected in a plate-reading luminometer.
The Sf9 insect cell pellets (˜18 g) produced from 6 L of cultured cells expressing human Aurora-2 were resuspended in 50 mM Na Phosphate pH 8.0, 500 mM NaCl, 10% glycerol, 0.2% n-octyl-β-D-glucopyranoside (BOG) and 3 mM β-Mercaptoethanol (BME). One tablet of Roche Complete, EDTA-free protease inhibitor cocktail (Cat# 1873580) and 85 units Benzonase (Novagen Cat#70746-3)) were added per 1 L of original culture. Pellets were resuspended in approximately 50 ml per 1 L of original culture and were then sonicated on ice with two 30-45 sec bursts (100% duty cycle). Debris was removed by centrifugation and the supernatant was passed through a 0.8 μm syringe filter before being loaded onto a 5 ml Ni^2+ HiTrap column (Pharmacia). The column was washed with 6 column volumes of 50 mM Na Phosphate pH 8.0, 500 mM NaCl, 10% glycerol, 3 mM BME. The protein was eluted using a linear gradient of the same buffer containing 500 mM Imidazole. The eluant (24 ml) was cleaved overnight at 4° C. in a buffer containing 50 mM Na Phosphate pH 8.0, 500 mM NaCl, 10% glycerol, 3 mM BME and 10,000 units of TEV (Invitrogen Cat# 10127-017). […]
Turning to `CNC(=O)c1cncc(-c2cnc3[nH]cc(-c4ccccc4OC)c3c2)c1` [AE1], the IC50 was 500 to 5000 nM. In turn, `COc1ccccc1-c1c[nH]c2ncc(-c3ccc(S(N)(=O)=O)s3)cc12` [AE11] displayed an IC50 of 500 to 5000 nM. As for `COc1ccccc1-c1c[nH]c2ncc(-c3cccc(S(C)(=O)=O)c3)cc12` [AE13], the IC50 was 500 to 5000 nM.

With `COc1ccccc1-c1c[nH]c2ncc(-c3ccc[nH]3)cc12` [AE67], the IC50 lay within 500 to 5000 nM.

On to `COCCOc1ccc(-c2cnc3[nH]cc(-c4ccccc4OC)c3c2)cc1OCCOC` [AE68], for which the IC50 was in the range of 500 to 5000 nM.
